# Legend:
# Format in all cases: in vivo
# Lolium multiflorum [1] = test: Herbicidal pre-emergence action; details: pre-emergence method, 80 g/ha, greenhouse, visual assessment vs untreated controls
# Excerpt: (§1) Seeds of monocotylidonous and dicotylidonous weed and crop plants are placed in sandy loam in wood fibre pots and covered with soil. The test compounds, formulated in the form of wettable powders (WP), are then, as an aqueous suspension with a water application rate of 600 l/ha (converted), with 0.2% of wetting agent added, applied to the surface of the covering soil in different amounts.
# (§2) After the treatment, the pots are placed in a greenhouse and kept under good growth conditions for the test plants. The visual assessment of the emergence damage on the test plants is carried out after a trial period of three weeks by comparison with the untreated controls (herbicidal effect in percent: 100% effect=the plants have died, 0% effect=like control plants).
# Alopecurus myosuroides [2] = test: Herbicidal pre-emergence action; details: pre-emergence method, 80 g/ha, greenhouse, visual assessment vs untreated controls
# Excerpt: as §1, §2
# Echinocloa crus-galli [3] = test: Herbicidal pre-emergence action; details: pre-emergence method, 80 g/ha, greenhouse, visual assessment vs untreated controls
# Excerpt: as §1, §2
# Setaria viridis [4] = test: Herbicidal pre-emergence action; details: pre-emergence method, 80 g/ha, greenhouse, visual assessment vs untreated controls
# Excerpt: as §1, §2
# [5] = test system: monocotylidonous and dicotylidonous weed and crop plants; test: Herbicidal pre-emergence action (other test plants); details: pre-emergence method, 80 g/ha, greenhouse, visual assessment vs untreated controls
# Excerpt: as §1, §2
# Lolium multiflorum [6] = test: Herbicidal post-emergence action; details: post-emergence method, 80 g/ha
# Procedure, shortened: (§3)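 Greenhouse plants in sandy loam sprayed at the one-leaf stage, 2-3 weeks after sowing, with WP-formulated compound at varied rates in 600 l/ha water plus 0.2% wetting agent. Damage scored visually after about three weeks as percent effect versus untreated controls (100% = dead).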
# Alopecurus myosuroides [7] = test: Herbicidal post-emergence action; details: post-emergence method, 80 g/ha
# Procedure, shortened: as §3
# Setaria viridis [8] = test: Herbicidal post-emergence action; details: post-emergence method, 80 g/ha
# Procedure, shortened: as §3
# [9] = test system: monocotylidonous and dicotylidonous weed and crop plants; test: Herbicidal post-emergence action (other test plants); details: post-emergence method, 80 g/ha
# Procedure, shortened: as §3
# Echinocloa crus-galli [10] = test: Herbicidal post-emergence action; details: post-emergence method, 80 g/ha
# Procedure, shortened: as §3
Compound,herbicidal effect LOLMU (Lolium multiflorum [1]) [%],herbicidal effect ALOMY (Alopecurus myosuroides [2]) [%],herbicidal effect ECHCG (Echinocloa crus-galli [3]) [%],herbicidal effect SETVI (Setaria viridis [4]) [%],herbicidal effect AVEFA [5] [%],herbicidal effect against LOLMU (Lolium multiflorum) (Lolium multiflorum [6]) [%],herbicidal effect against ALOMY (Alopecurus myosuroides) (Alopecurus myosuroides [7]) [%],herbicidal effect against SETVI (Setaria viridis) (Setaria viridis [8]) [%],herbicidal effect against AVEFA (Avena fatua) [9] [%],herbicidal effect against ECHCG (Echinochloa crus-galli) (Echinocloa crus-galli [10]) [%]
CCOC(=O)OC1=C(c2c(CC)cc(C)cc2CC)C(=O)C2CC3(CC12)OCC(C)(C)CO3 (racemic) [I-c-6],80,50,90,60,10,,,,,
CCOC(=O)OC1=C(c2c(C)cc(C)cc2CC)C(=O)C2CC3(CC12)OCCO3 (racemic) [I-c-71],100,70,100,90,70,100,80,100,90,
CCc1cc(C)cc(CC)c1C1=C(O)[C@H]2CC(=NOC3CC3)C[C@H]2C1=O (relative stereo) [I-a-30],70,80,,70,0,90,90,50,0,100
Cc1cc(C)c(C2=C(O)C3CC4(CC3C2=O)OCC=CCO4)c(C)c1 (centres unmarked) [I-a-41],100,60,50,,60,100,100,100,40,90
CCc1cc(C)cc(CC)c1C1=C(OC(=O)C(C)C)C2CC3(CC2C1=O)OC(C)CC(C)O3 (centres unmarked) [I-b-15],80,80,100,,50,100,100,100,90,100
CCc1cc(C)cc(CC)c1C1=C(OC(=O)C(C)(C)C)C2CC3(CC2C1=O)OCCCO3 (centres unmarked) [I-b-27],100,,100,70,70,100,100,100,100,100
CCc1cc(C)cc(CC)c1C1=C(OC(=O)C(C)C)C2CC3(CC2C1=O)OCCCO3 (centres unmarked) [I-b-29],100,,100,80,70,100,100,100,90,100
Cc1cc(C)c(C2=C(OC(=O)C(C)C)C3CC4(CC3C2=O)OCC=CCO4)c(C)c1 (centres unmarked) [I-b-42],100,,60,90,70,100,100,100,80,100
CCc1cc(C)cc(C)c1C1=C(OC(=O)C(C)C)C2CC3(CC2C1=O)OCCCCO3 (centres unmarked) [I-b-77],90,60,,60,40,100,100,90,60,100
CCOC(=O)OC1=C(c2c(CC)cc(C)cc2CC)C(=O)C2CC3(CC12)OCC(OCc1ccccc1)CO3 (centres unmarked) [I-c-28],,90,100,50,60,100,100,100,100,100
CCc1cc(C)cc(CC)c1C1=C(OC(=O)OC)C2CC3(CC2C1=O)OCCCO3 (centres unmarked) [I-c-35],100,80,,70,70,100,100,100,100,100
C=C1CC2C(=O)C(c3c(C)cc(C)cc3OC)=C([O-])C2C1.[Na+] (centres unmarked) [I-f-22],80,80,,100,70,80,30,100,40,100

# Source: patent publication US8367873B2, “Phenyl-substituted bicyclooctane-1,3-dione derivatives” (Bayer Cropscience AG, priority 2008, dated 2013)
